This passage reports TGI results from PubChem BioAssay (NCI).

Molecules are shown by their SMILES.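 Each compound was tested at five concentrations against cells in 96-well plates for 48 hours. At the TGI there is no net growth.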

Holding throughout (experiment): NCI-60 cell line screen, 48 h
Assay [1] concerns OVCAR-8 ovarian.
Assay [2] deals with SK-OV-3 ovarian.
Assay [3] deals with UACC-62 melanoma.
The test system of assay [4] is U251 CNS.
Assay [5] concerns ACHN renal.
In assay [6] the test system is SN12C renal.
The test system of assay [7] is SF-539 CNS.
Assay [8] concerns COLO 205 colon.
For assay [9], the system named is SNB-75 CNS.
Assay [10] concerns NCI-H23 lung.
In assay [11] the test system is DMS 114 small cell lung.
The subject of assay [12] is HCT-15 colon.
For assay [13], the system named is SNB-19 CNS.
Assay [14] has as its system IGROV1 ovarian.
In assay [15] the test system is SF-268 CNS.
Assay [16] has as its system SK-MEL-5 melanoma.
For assay [17], the system named is RPMI-8226 leukemia.

Take `COc1ccc(C2Cc3cc(OC)c(OC)c(OC)c3C2)cc1` (stereo not given): the TGI in assay [1], in [2], in assay [3], in [4], in [5] and in assay [6] was more than 100 µM in each case. Also, the TGI in [7] was more than 100 µM; in assay [8], more than 100 µM; in [9], 84.8 µM; in assay [10], more than 100 µM; in [11], more than 100 µM; in assay [12] it was more than 100 µM. Moreover, the TGI in assay [13] is more than 100 µM; in [14], more than 100 µM; in [15], more than 100 µM; in assay [16], 31.3 µM; in assay [17], 98.9 µM.

For the compound `CCOC(=O)C1=C(OC(OCC)C(CC)[Se]c2ccccc2)CCC1` (stereo not given), the TGI is more than 100 µM in [1]; more than 100 µM in assay [2]; 81.1 µM in assay [3]; 25.3 µM in assay [4]; more than 100 µM in [5]; 47.2 µM in [6]. The TGI in assay [7] was 37.4 µM; in assay [8] it was more than 100 µM; in [9], 69.8 µM; in assay [10] it was 27.5 µM; in [11], 15.6 µM; in assay [12], 42.9 µM. Also, the TGI in assay [13] was more than 100 µM; in assay [14] it was more than 100 µM; in assay [15], 36.8 µM; in [16] it was 31.2 µM; in assay [17] it was 53.2 µM.

Regarding `COC(=O)/C=C(\C)CCC1SC1(C)C` (stereo not given), the TGI in [1], in assay [2], in [3], in assay [4], in assay [5] and in assay [6] was more than 100 µM each time. Also, the TGI in [7], in [8], in assay [9], in assay [10], in [11] and in [12] was more than 100 µM throughout. Further, the TGI in assay [13], in assay [14], in assay [15], in assay [16] and in assay [17] was more than 100 µM throughout.

With `Cc1ccc(-c2cc(-c3ccccc3)c(C#N)c(=O)[nH]2)cc1`, the TGI in assay [1], in assay [2], in [3], in [4], in assay [5] and in [6] was more than 100 µM each time. Moreover, the TGI in assay [7], in assay [8], in [9], in assay [10], in assay [11] and in [12] was more than 100 µM throughout. For the same compound, the TGI in assay [13], in [14], in assay [15], in assay [16] and in assay [17] was more than 100 µM throughout.

As for `CCCNCCCCC(NC(C)=O)C(=O)NCc1ccccc1` (stereo not given), the TGI in assay [1], in assay [2], in assay [3], in assay [4], in [5] and in assay [6] was more than 100 µM throughout. Also, the TGI in [7], in [8], in [9], in assay [10], in assay [11] and in assay [12] was more than 100 µM in each case. The TGI in assay [13], in assay [14], in [15], in [16] and in assay [17] was more than 100 µM in each case.

In the case of `CCCCOC/N=C(/N)NC#N`, the TGI in assay [1], in [2], in [3], in [4], in assay [5] and in assay [6] was more than 100 µM in each case. For the same compound, the TGI in assay [7] was more than 100 µM; in [8] it was more than 100 µM; in assay [9] it was more than 100 µM; in assay [10] it was more than 100 µM; in assay [11], more than 100 µM; in assay [12] it was 43.8 µM. Also, the TGI in [13], in [14], in assay [15], in assay [16] and in [17] was more than 100 µM in each case.

With `COc1cc([C@@H]2c3cc4c(cc3[C@@H](NCc3cccc(C#N)c3)C3COC(=O)[C@@H]32)OCO4)cc(OC)c1O` (stereo not given in full), the TGI in [1] came to 4.56 µM; in assay [2] it was 4.12 µM; in [3], 2.93 µM; in assay [4], 1.93 µM; in assay [5], 1.58 µM; in assay [6], 2.93 µM. The TGI was 1.94 µM in assay [7]; 21.4 µM in assay [8]; 4.45 µM in assay [9]; 1.76 µM in [10]; 9.19 µM in assay [11]; 3.17 µM in assay [12]. Moreover, the TGI is 7.74 µM in assay [13]; 15.2 µM in [14]; more than 100 µM in assay [15]; 13 µM in [16]; 7.33 µM in assay [17].

In the case of `COc1ccc2[nH]c3c(c2c1)[C@H]1CCC(C(C)(C)C)C[C@H]1[C@H]1C(=O)N(c2ccccc2)C(=O)[C@@H]31` (stereo not given in full), the TGI in [1] is 28.1 µM; in assay [2], 44.9 µM; in [3] it was more than 100 µM; in assay [4], 19.2 µM; in assay [5], 18.4 µM; in assay [6], more than 44.5 µM. Also, the TGI was 18.1 µM in assay [7]; more than 79.2 µM in [8]; 14.6 µM in assay [9]; more than 52.1 µM in [10]; more than 76.7 µM in [11]; more than 100 µM in assay [12]. Further, the TGI in assay [13] was more than 51.7 µM; in assay [14] it was more than 100 µM; in assay [15], more than 48.2 µM; in [16], more than 100 µM; in [17] it was more than 100 µM.

Turning to `CCCCCCCCC(O)c1ccc(/C=C\C(O)CCCC(=O)O)s1` (stereo not given), the TGI in assay [1], in assay [2], in assay [3], in [4], in assay [5] and in [6] was more than 100 µM each time. Moreover, the TGI in assay [7], in assay [8], in assay [9], in assay [10], in assay [11] and in assay [12] was more than 100 µM in each case. In addition, the TGI in assay [13], in assay [14], in assay [15], in assay [16] and in [17] was more than 100 µM in each case.

As to `CCOC(=O)CCC(NC(=O)c1ccc(NC(OC)c2nc3cc(C(F)(F)F)ccc3nc2-c2ccccc2)cc1)C(=O)OCC` (stereo not given), the TGI in assay [1] was determined as 29.6 µM; in assay [2], 34.9 µM; in [3], 34.2 µM; in assay [4], 29.8 µM; in [5] it was 30.2 µM; in assay [6] it was 28.2 µM. For the same compound, the TGI is 26.1 µM in assay [7]; 35.6 µM in assay [8]; 36.5 µM in assay [9]; 31.5 µM in assay [10]; 30.7 µM in [11]; 34 µM in assay [12]. For the same compound, the TGI was 27.5 µM in [13]; 33.3 µM in assay [14]; 30.9 µM in assay [15]; 30 µM in [16]; more than 74.1 µM in assay [17].
